Patent publication US20120065126A1, “Pharmaceutical Compositions Containing Antifungal Peptides” (BASF SE, priority 2009, published 2012)

Legend:
Malassezia furfur = test: Growth inhibition at equal concentrations by weight of P18, zinc pyrithione, climbazole, ketoconazole (CFU); assay type: cell-based
Description: The studies described hereinafter were conducted on the Malassezia furfur strain DSM 6170.
For this purpose, the procedure was as follows:
The growth test was effected as follows: a shake culture containing M472 Pityrosporum medium was inoculated with M. furfur and incubated with shaking at 30° C. and 200 rpm overnight.
A 96-well microtiter plate was filled with 100 μl per well of M472 Pityrosporum medium and inoculated with M. furfur suspension from the overnight culture. The M. furfur suspension was adjusted at the start of the experiment to an optical density, measured at 600 nm, of 0.02. The concentrates of the inhibitor solutions were 1 mM in DMSO for P18 peptide and 10 mM in DMSO for zinc pyrithione, ketoconazole and climbazole. The final DMSO concentration was kept the same in all experiments.
The following growth was compared by measuring the optical density: • M. furfur suspension and addition of the P18 solution with a final concentration of 50 μM (corresponds to 0.0115% (w/w)) • M. furfur suspension and addition of the zinc pyrithione (ZPT) solution with a final concentration of 362 μM (comparison to the mixture containing 50 μM P18 peptide) • M. furfur suspension and addition of the ketoconazole solution with a final concentration of 216 μM (comparison to the mixture containing 50 μM P18 peptide) • M. furfur suspension and addition of the climbazole solution with a final concentration of 390 μM (comparison to the mixture containing 50 μM P18 peptide)
The microtiter plate was incubated with shaking at 30° C.
[…] After incubation over the course of 6 days, the colonies on the plate were counted. The CFU was determined in order to rule out any influence of the biphasic medium, and also the growth form of M. furfur, on the optical density. The experiments were each conducted in double determination, at least in two independent experiments.

[1] = test system: Escherichia coli (Stratagene, BLR); test: Short-term effect (CFU); assay type: cell-based
Description: For this purpose, the procedure was as follows.
LB growth medium (Becton, Dickinson and Company, Sparks, USA) […] make up to 1 liter, set pH 7
The growth test was effected as follows: 10 ml of LB medium were inoculated with E. coli and incubated at 37° C. and 200 rpm overnight.
1.5 ml reaction vessels were each filled with 1 ml of LB medium and inoculated with the E. coli suspension from the overnight culture. The E. coli suspension was adjusted at the start of the experiment to an optical density, measured at 600 nm, of 0.1. The concentration of the peptide solution in water or ZPT solution (zinc pyrithione, >96%, Sigma Aldrich) dissolved in DMSO was 2% (w/w).
The following growth was compared: • E. coli suspension and addition of P18 peptide with a final concentration in the 1.5 ml reaction vessel of 50 ppm after 5 minutes, 10 minutes, 20 minutes and 60 minutes • E. coli suspension and addition of P18 peptide with a final concentration in the 1.5 ml reaction vessel of 100 ppm after 5 minutes, 10 minutes, 20 minutes and 60 minutes • E. coli suspension and addition of P18 peptide with a final concentration in the 1.5 ml reaction vessel of 200 ppm after 5 minutes, 10 minutes, 20 minutes and 60 minutes • E. coli suspension and addition of P18 peptide with a final concentration in the 1.5 ml reaction vessel of 500 ppm after 5 minutes, 10 minutes, 20 minutes and 60 minutes • E. coli suspension and addition of P18 peptide with a final concentration in the 1.5 ml reaction vessel of 1000 ppm after 5 minutes, 10 minutes, 20 minutes and 60 minutes • E. coli suspension and addition of ZPT with a final concentration in the 1.5 ml reaction vessel of 50 ppm after 5 minutes, 10 minutes, 20 minutes and 60 minutes • E. coli suspension and addition of ZPT with a final concentration in the 1.5 ml reaction vessel of 100 ppm after 5 minutes, 10 minutes, 20 minutes and 60 minutes • E. coli suspension and addition of ZPT with a final concentration in the 1.5 ml reaction vessel of 200 ppm after 5 minutes, 10 minutes, 20 minutes and 60 minutes • E. coli suspension and addition of ZPT with a final concentration in the 1.5 ml reaction vessel of 500 ppm after 5 minutes, 10 minutes, 20 minutes and 60 minutes • E. coli suspension and addition of ZPT with a final concentration in the 1.5 ml reaction vessel of 1000 ppm after 5 minutes, 10 minutes, 20 minutes and 60 minutes
The 1.5 ml reaction vessels were incubated at room temperature.
After the incubation times specified, the colony forming units (CFU) were determined by streaking 1 μl of each of the suspensions diluted in 20 μl of LB medium and, after incubation for 2 days, counting the colonies.

Substance	Colony forming units after the incubation time specified ([1]; 50 ppm, 5 minutes) [CFU]	Colony forming units after the incubation time specified ([1]; 50 ppm, 10 minutes) [CFU]	Colony forming units after the incubation time specified ([1]; 50 ppm, 20 minutes) [CFU]	Colony forming units after the incubation time specified ([1]; 50 ppm, 60 minutes) [CFU]	Colony forming units after the incubation time specified ([1]; 100 ppm, 5 minutes) [CFU]	Colony forming units after the incubation time specified ([1]; 100 ppm, 10 minutes) [CFU]	Colony forming units after the incubation time specified ([1]; 100 ppm, 20 minutes) [CFU]	Colony forming units after the incubation time specified ([1]; 100 ppm, 60 minutes) [CFU]	Colony forming units after the incubation time specified ([1]; 200 ppm, 5 minutes) [CFU]	Colony forming units after the incubation time specified ([1]; 200 ppm, 10 minutes) [CFU]	Colony forming units after the incubation time specified ([1]; 200 ppm, 20 minutes) [CFU]	Colony forming units after the incubation time specified ([1]; 200 ppm, 60 minutes) [CFU]	Colony forming units after the incubation time specified ([1]; 500 ppm, 5 minutes) [CFU]	Colony forming units after the incubation time specified ([1]; 500 ppm, 10 minutes) [CFU]	Colony forming units after the incubation time specified ([1]; 500 ppm, 20 minutes) [CFU]	Colony forming units after the incubation time specified ([1]; 500 ppm, 60 minutes) [CFU]	Colony forming units after the incubation time specified ([1]; 1000 ppm, 5 minutes) [CFU]	Colony forming units after the incubation time specified ([1]; 1000 ppm, 10 minutes) [CFU]	Colony forming units after the incubation time specified ([1]; 1000 ppm, 20 minutes) [CFU]	Colony forming units after the incubation time specified ([1]; 1000 ppm, 60 minutes) [CFU]	further results
H-KWKLFKKIPKFLHLAKKF-NH2 [P18, H-KWKLFKKIPKFLHLAKKF-NH2]	2000 ± 0	2000 ± 0	2000 ± 0	1208 ± 532	2000 ± 0	2000 ± 0	1836 ± 108	726 ± 88	2000 ± 0	2000 ± 0	1310 ± 144	192 ± 56	2000 ± 0	2000 ± 0	816 ± 96	24 ± 16	2000 ± 0	2000 ± 0	369 ± 383	6 ± 2	Colony forming units (CFU) (Malassezia furfur; final conc. 50 μM (0.0115% (w/w)), 24 h): 1 ± 1 CFU; Colony forming units (CFU) (Malassezia furfur; final conc. 50 μM (0.0115% (w/w)), 40 h): 0 ± 0 CFU
zinc pyrithione [ZPT]	2000 ± 0	2000 ± 0	2000 ± 0	2000 ± 0	2000 ± 0	2000 ± 0	2000 ± 0	2000 ± 0	2000 ± 0	2000 ± 0	2000 ± 0	2000 ± 0	2000 ± 0	2000 ± 0	2000 ± 0	2000 ± 0	2000 ± 0	2000 ± 0	2000 ± 0	2000 ± 0	Colony forming units (CFU) (Malassezia furfur; final conc. 362 μM, 24 h): 60 ± 40 CFU; Colony forming units (CFU) (Malassezia furfur; final conc. 362 μM, 40 h): 26 ± 7 CFU; Inhibition in words ([1]; 50-1000 ppm, up to 60 minutes): no significant inhibition
